Measured values published in paper PMC3309038 (Bioorganic & medicinal chemistry letters, 2012).

Assays:
in vitro = in vitro ADME; conditions: rat, microsomes, pH 7.4
[1] = Microsomal stability assay, human liver microsomes; type: in vitro ADME; conditions: pH 7.4
TZM-bl cells = conditions: read-out: CC50, cytotoxicity to 50% of cells, published previously; cited from earlier work
wild-type HIV-1 NL4-3 = assay: Anti-HIV activity against wild-type HIV-1 NL4-3 infection of TZM-bl cells; type: cell-based; conditions: HIV-1 NL4-3 wild-type

SMILES | microsomal CLint at 1 μM (in vitro) [µL/min/mg] | microsomal CLint at 1 μM [1] [µL/min/mg] | CC50 (TZM-bl cells) [µM] | Selectivity index (SI), ratio of CC50/EC50 (wild-type HIV-1 NL4-3)
Cc1cc(/C=C/C#N)cc(C)c1Nc1ccnc(Nc2ccc(C#N)cc2)n1 [Compound 2, rilpivirine] | 57 | 200 |  | 
Cc1cc(/C=C/C#N)cc(C)c1Oc1cc(Nc2ccc(C#N)cc2)c(N)cc1[N+](=O)[O-] [Compound 3] | 50 | 150 | > 47.1 | 
COC(=O)c1cc(N)c(Nc2ccc(C#N)cc2)cc1Oc1c(C)cc(/C=C/C#N)cc1C [Compound 9a] |  |  |  | >8465
Cc1cc(/C=C/C#N)cc(C)c1Oc1cc(Nc2ccc(C#N)cc2)c(N)cc1C(N)=O [Compound 9c] | 57 | 200 |  | 
Cc1cc(/C=C/C#N)cc(C)c1Oc1cc(Nc2ccc(C#N)cc2)c(N)cc1CO [Compound 9e] |  | 230 |  | 
